Laboratory results reported in ChEMBL document CHEMBL2021812, “Aryltriflates as a Neglected Moiety in Medicinal Chemistry: A Case Study from a Lead Optimization of CXCL8 Inhibitors” (ACS Med Chem Lett, 2011).
Blank lines part the entries; values can stand above or below the molecule they belong to. The source made the active and inactive calls. The calls are words filed in the database; no cut-off is given here.

Experiments:
[1] = target: T1, CYP1A2 (Homo sapiens, UniProt P05177); test: Inhibition of CYP1A2 using CEC as substrate at 10 uM; type: ADME; conditions: probe CEC
T1 sequence (P05177 whole entry): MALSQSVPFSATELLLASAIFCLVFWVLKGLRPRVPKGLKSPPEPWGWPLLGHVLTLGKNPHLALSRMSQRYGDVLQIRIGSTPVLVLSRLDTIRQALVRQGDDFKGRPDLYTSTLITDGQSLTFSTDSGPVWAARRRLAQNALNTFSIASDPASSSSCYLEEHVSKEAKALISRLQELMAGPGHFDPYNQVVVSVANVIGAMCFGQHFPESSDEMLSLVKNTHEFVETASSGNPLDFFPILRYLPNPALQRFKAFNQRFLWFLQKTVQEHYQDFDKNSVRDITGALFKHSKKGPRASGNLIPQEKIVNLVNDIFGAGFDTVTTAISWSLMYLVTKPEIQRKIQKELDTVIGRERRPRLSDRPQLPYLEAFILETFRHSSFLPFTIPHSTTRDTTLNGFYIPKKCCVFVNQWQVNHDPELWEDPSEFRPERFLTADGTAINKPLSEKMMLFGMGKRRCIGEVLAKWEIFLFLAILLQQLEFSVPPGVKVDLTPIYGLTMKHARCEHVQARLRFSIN

[2] = target: CYP2D6 (Homo sapiens, UniProt P10635); test: Inhibition of CYP2D6 using AMMC as substrate at 10 uM; type: ADME; conditions: probe AMMC
Sequence of CYP2D6 (P10635 whole entry): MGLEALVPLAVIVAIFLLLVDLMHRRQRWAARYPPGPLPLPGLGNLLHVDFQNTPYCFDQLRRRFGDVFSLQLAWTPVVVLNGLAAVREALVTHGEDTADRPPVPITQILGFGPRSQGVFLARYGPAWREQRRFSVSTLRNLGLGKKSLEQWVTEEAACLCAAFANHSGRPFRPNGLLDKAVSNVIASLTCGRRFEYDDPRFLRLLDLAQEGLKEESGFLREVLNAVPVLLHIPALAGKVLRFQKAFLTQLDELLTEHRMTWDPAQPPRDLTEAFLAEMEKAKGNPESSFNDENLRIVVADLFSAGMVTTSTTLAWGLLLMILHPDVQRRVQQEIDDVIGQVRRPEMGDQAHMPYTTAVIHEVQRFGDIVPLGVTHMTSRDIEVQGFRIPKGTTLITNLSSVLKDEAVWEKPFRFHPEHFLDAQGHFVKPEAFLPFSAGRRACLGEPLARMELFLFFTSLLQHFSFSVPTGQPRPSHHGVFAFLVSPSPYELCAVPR

[3] = target: Interleukin-8 receptors, CXCR1/CXCR2 (Homo sapiens) (UniProt P25025+P25024); test: Inhibition of CXCR1/2 in human polymorphonucleate cells assessed as inhibition of CXCL8-induced chemotaxis at 10^-8 M incubated for 15 mins prior to CXCL8-induction measured after 45 mins
Sequence of Interleukin-8 receptors, CXCR1/CXCR2 (Homo sapiens) (P25024 whole entry, looked up, one chain of several): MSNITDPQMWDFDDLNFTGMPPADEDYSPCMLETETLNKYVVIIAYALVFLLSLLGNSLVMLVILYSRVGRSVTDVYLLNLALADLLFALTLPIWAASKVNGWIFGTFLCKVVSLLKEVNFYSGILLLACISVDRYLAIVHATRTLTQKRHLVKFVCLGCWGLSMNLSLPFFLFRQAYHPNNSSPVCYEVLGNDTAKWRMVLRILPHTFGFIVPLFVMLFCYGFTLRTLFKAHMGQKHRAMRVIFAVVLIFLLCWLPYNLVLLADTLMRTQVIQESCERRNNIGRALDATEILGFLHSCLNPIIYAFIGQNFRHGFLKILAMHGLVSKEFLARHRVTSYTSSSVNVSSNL

[4] = target: CYP2C9 (Homo sapiens, UniProt P11712); test: Inhibition of CYP2C9 using 7MFC as substrate at 10 uM; type: ADME; conditions: probe 7MFC
Sequence of CYP2C9 (P11712 whole entry): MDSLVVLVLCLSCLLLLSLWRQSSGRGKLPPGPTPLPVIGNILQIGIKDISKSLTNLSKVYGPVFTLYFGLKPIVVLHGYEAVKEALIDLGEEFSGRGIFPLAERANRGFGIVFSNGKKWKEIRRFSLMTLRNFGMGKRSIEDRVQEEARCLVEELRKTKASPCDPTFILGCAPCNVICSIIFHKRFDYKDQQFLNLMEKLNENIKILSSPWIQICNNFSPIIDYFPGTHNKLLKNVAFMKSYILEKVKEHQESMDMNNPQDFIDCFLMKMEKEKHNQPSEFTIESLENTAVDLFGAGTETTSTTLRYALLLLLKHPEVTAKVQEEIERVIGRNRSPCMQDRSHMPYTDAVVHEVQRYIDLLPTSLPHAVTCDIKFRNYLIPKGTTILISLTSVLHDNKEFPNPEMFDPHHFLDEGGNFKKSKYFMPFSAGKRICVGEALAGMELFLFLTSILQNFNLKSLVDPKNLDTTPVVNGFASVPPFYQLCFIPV

[5] = target: T2, C-X-C chemokine receptor type 2 (Homo sapiens) (UniProt P25025); test: Inhibition of CXCR2 in human polymorphonucleate cells assessed as inhibition of CXCL1-induced chemotaxis at 10^-8 M incubated for 15 mins prior to CXCL1-induction measured after 45 mins
T2 sequence (whole entry): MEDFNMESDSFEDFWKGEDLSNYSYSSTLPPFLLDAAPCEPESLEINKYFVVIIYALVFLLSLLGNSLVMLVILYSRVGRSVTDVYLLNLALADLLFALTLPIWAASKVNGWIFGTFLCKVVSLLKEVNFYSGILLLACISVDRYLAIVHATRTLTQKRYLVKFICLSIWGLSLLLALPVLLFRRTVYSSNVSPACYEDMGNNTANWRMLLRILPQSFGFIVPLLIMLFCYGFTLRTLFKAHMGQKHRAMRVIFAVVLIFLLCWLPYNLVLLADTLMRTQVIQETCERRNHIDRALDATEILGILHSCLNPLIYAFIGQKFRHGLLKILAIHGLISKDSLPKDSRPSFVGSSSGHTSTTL

[6] = target: CYP3A4 (Homo sapiens, UniProt P08684); test: Inhibition of CYP3A4 using BFC as substrate at 10 uM; type: ADME; conditions: probe BFC
Sequence of CYP3A4 (P08684 whole entry): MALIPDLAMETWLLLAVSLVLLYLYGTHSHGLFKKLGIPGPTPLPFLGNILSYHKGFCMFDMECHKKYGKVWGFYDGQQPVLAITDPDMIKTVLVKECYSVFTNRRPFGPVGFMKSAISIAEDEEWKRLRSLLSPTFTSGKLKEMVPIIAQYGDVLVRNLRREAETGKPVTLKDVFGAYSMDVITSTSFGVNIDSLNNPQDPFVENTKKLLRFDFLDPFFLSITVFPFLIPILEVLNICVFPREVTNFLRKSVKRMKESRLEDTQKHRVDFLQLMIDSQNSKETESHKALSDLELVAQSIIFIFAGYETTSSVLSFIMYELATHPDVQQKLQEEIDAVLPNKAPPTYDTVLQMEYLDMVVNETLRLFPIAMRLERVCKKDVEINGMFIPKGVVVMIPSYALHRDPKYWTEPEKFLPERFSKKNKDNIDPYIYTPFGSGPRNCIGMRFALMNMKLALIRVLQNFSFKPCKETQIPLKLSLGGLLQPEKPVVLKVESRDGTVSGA

[7] = target: CYP2C19 (Homo sapiens, UniProt P33261); test: Inhibition of CYP2C19 using DBF as substrate at 10 uM; type: ADME; conditions: probe DBF
Sequence of CYP2C19 (P33261 whole entry): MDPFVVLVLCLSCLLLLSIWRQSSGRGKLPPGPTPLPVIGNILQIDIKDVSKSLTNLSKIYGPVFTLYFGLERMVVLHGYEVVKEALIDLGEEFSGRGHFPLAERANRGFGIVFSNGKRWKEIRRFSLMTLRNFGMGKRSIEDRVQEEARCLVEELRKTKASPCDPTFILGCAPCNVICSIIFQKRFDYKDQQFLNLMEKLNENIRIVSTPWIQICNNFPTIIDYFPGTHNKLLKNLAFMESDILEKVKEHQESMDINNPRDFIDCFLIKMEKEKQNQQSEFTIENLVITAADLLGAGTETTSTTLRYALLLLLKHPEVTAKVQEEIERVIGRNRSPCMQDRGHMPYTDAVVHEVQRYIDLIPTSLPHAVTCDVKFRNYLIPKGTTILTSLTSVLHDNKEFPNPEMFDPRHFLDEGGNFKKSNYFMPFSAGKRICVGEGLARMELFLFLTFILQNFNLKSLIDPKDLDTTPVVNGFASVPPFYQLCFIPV

[8] = Metabolic stability in rat liver microsomes assessed as compound remaining at 1 uM preincubated for 10 mins measured after 30 mins; type: ADME, Microsome; conditions: read-out: Stability
[9] = test system: Hepatocyte; test: Drug metabolism in human hepatocytes assessed as (S)-2-(4-(trifluoromethylsulfonyloxy)phenyl)propanoic acid level at 10 uM after 60 mins; type: ADME, cell-based; conditions: 1 h
[10] = Chemical stability of the compound assessed as compound remaining at pH 7.4 after 2 hrs; type: physicochemical; conditions: buffer, read-out: Stability
[11] = test system: Hepatocyte; test: Drug metabolism in rat hepatocytes assessed as (S)-2-(4-(trifluoromethylsulfonyloxy)phenyl)propanoic acid level at 10 uM after 15 mins; type: ADME, cell-based; conditions: 0.25 h
[12] = test system: Hepatocyte; test: Drug metabolism in human hepatocytes assessed as (S)-2-(4-(trifluoromethylsulfonyloxy)phenyl)propanoic acid level at 10 uM after 90 mins; type: ADME, cell-based; conditions: 1.5 h
[13] = test system: Hepatocyte; test: Drug metabolism in rat hepatocytes assessed as (S)-2-(4-(trifluoromethylsulfonyloxy)phenyl)propanoic acid level at 10 uM after 30 mins; type: ADME, cell-based; conditions: 0.5 h
[14] = Dissociation constant, pKa of the compound; type: physicochemical
[15] = Chemical stability of the compound assessed as compound remaining at pH 9 after 2 hrs; type: physicochemical; conditions: buffer, read-out: Stability
[16] = test system: Hepatocyte; test: Metabolic stability in rat hepatocytes assessed as compound remaining at 10 uM after 120 mins; type: ADME, cell-based; conditions: 2 h
[17] = test system: Hepatocyte; test: Drug metabolism in rat hepatocytes assessed as (S)-2-(4-(trifluoromethylsulfonyloxy)phenyl)propanoic acid level at 10 uM after 120 mins; type: ADME, cell-based; conditions: 2 h
[18] = test system: Hepatocyte; test: Metabolic stability in human hepatocytes assessed as compound remaining at 10 uM after 15 mins; type: ADME, cell-based; conditions: 0.25 h
[19] = test system: Hepatocyte; test: Metabolic stability in human hepatocytes assessed as compound remaining at 10 uM after 120 mins; type: ADME, cell-based; conditions: 2 h
[20] = Chemical stability of the compound assessed as compound remaining at pH 3.5 after 2 hrs; type: physicochemical; conditions: buffer, read-out: Stability
[21] = Metabolic stability in rat plasma assessed as compound remaining at 1 uM after 1 hr; type: ADME, cell-free; conditions: read-out: Stability
[22] = test system: Hepatocyte; test: Metabolic stability in rat hepatocytes assessed as compound remaining at 10 uM after 60 mins; type: ADME, cell-based; conditions: 1 h
[23] = test system: Hepatocyte; test: Drug metabolism in rat hepatocytes assessed as (S)-2-(4-(trifluoromethylsulfonyloxy)phenyl)propanoic acid level at 10 uM after 60 mins; type: ADME, cell-based; conditions: 1 h
[24] = test system: Hepatocyte; test: Drug metabolism in human hepatocytes assessed as (S)-2-(4-(trifluoromethylsulfonyloxy)phenyl)propanoic acid level at 10 uM after 30 mins; type: ADME, cell-based; conditions: 0.5 h
[25] = test system: Hepatocyte; test: Metabolic stability in human hepatocytes assessed as compound remaining at 10 uM after 30 mins; type: ADME, cell-based; conditions: 0.5 h
[26] = test system: Hepatocyte; test: Metabolic stability in human hepatocytes assessed as compound remaining at 10 uM after 90 mins; type: ADME, cell-based; conditions: 1.5 h
[27] = test system: Hepatocyte; test: Metabolic stability in rat hepatocytes assessed as compound remaining at 10 uM after 30 mins; type: ADME, cell-based; conditions: 0.5 h
[28] = test system: Hepatocyte; test: Drug metabolism in rat hepatocytes assessed as (S)-2-(4-(trifluoromethylsulfonyloxy)phenyl)propanoic acid level at 10 uM after 90 mins; type: ADME, cell-based; conditions: 1.5 h
[29] = test system: Hepatocyte; test: Metabolic stability in rat hepatocytes assessed as compound remaining at 10 uM after 15 mins; type: ADME, cell-based; conditions: 0.25 h
[30] = test system: Hepatocyte; test: Drug metabolism in human hepatocytes assessed as (S)-2-(4-(trifluoromethylsulfonyloxy)phenyl)propanoic acid level at 10 uM after 15 mins; type: ADME, cell-based; conditions: 0.25 h
[31] = test system: Hepatocyte; test: Drug metabolism in human hepatocytes assessed as (S)-2-(4-(trifluoromethylsulfonyloxy)phenyl)propanoic acid level at 10 uM after 120 mins; type: ADME, cell-based; conditions: 2 h
[32] = test system: Hepatocyte; test: Metabolic stability in human hepatocytes assessed as compound remaining at 10 uM after 60 mins; type: ADME, cell-based; conditions: 1 h
[33] = test system: Hepatocyte; test: Metabolic stability in rat hepatocytes assessed as compound remaining at 10 uM after 90 mins; type: ADME, cell-based; conditions: 1.5 h
[34] = Half life in iv dosed rat plasma; type: ADME, organism-based

Compound: C[C@@H](C(=O)Nc1ncco1)c1ccc(OS(=O)(=O)C(F)(F)F)cc1
inhibition at 10 µM [1]: 15% | inhibition at 10 µM [2]: < 5% | inhibition [3]: 47% | inhibition at 10 µM [4]: 70% | inhibition [5]: 46% | inhibition at 10 µM [6]: 44% | inhibition at 10 µM [7]: 90%

Compound: C[C@@H](C(=O)Nc1ccccn1)c1ccc(OS(=O)(=O)C(F)(F)F)cc1
inhibition at 10 µM [1]: < 5% | inhibition at 10 µM [2]: 21% | inhibition [3]: 43% | inhibition at 10 µM [4]: 37% | inhibition [5]: 45% | inhibition at 10 µM [6]: 15% | inhibition at 10 µM [7]: 97%

Compound: C[C@@H](C(=O)Nc1nccs1)c1ccc(OS(=O)(=O)C(F)(F)F)cc1
inhibition at 10 µM [1]: 36% | inhibition at 10 µM [2]: 26% | inhibition [3]: 56% | inhibition at 10 µM [4]: 53% | inhibition [5]: 55% | inhibition at 10 µM [6]: 52% | inhibition at 10 µM [7]: 87%

Compound: C[C@@H](C(=O)Nc1nc(C(F)(F)F)cs1)c1ccc(OS(=O)(=O)C(F)(F)F)cc1
inhibition at 10 µM [1]: 14% | inhibition at 10 µM [2]: 56% | inhibition [3]: 64% | inhibition at 10 µM [4]: 73% | inhibition [5]: 55% | inhibition at 10 µM [6]: 52% | inhibition at 10 µM [7]: 94%

Compound: Cc1csc(NC(=O)[C@H](C)c2ccc(OS(=O)(=O)C(F)(F)F)cc2)n1
inhibition at 10 µM [1]: 16% | inhibition at 10 µM [2]: < 5% | inhibition [3]: 58% | inhibition at 10 µM [4]: 60% | inhibition [5]: 50% | inhibition at 10 µM [6]: 60% | inhibition at 10 µM [7]: 90%

Compound: C[C@@H](C(=O)Nc1nc(C(F)(F)F)co1)c1ccc(OS(=O)(=O)C(F)(F)F)cc1
inhibition at 10 µM [1]: < 5% | inhibition at 10 µM [2]: 38% | inhibition [3]: 60% | inhibition at 10 µM [4]: 87% | inhibition [5]: 50% | inhibition at 10 µM [6]: 82% | inhibition at 10 µM [7]: 94%

Second part, the molecule after the results:

inhibition [3]: 58% | inhibition [5]: 56% | remaining at 0.5 h, 1 µM [8]: 80%
Compound: C[C@@H](C(N)=O)c1ccc(OS(=O)(=O)C(F)(F)F)cc1

Drug metabolism [9]: 240 ng/mL | remaining at 2 h [10]: > 99% | inhibition at 10 µM [1]: < 5% | Drug metabolism [11]: 117 ng/mL | Drug metabolism [12]: 260 ng/mL | Drug metabolism [13]: 210 ng/mL | pKa [14]: 4 | remaining at 2 h [15]: 30% | Stability [16]: 1946 ng/mL | Drug metabolism [17]: 870 ng/mL | inhibition at 10 µM [2]: < 5% | Stability [18]: 2932 ng/mL | inhibition [3]: 62% | Stability [19]: 2541 ng/mL | inhibition at 10 µM [4]: < 5% | remaining at 2 h [20]: > 99% | remaining at 1 h, 1 µM [21]: 100% | Stability [22]: 2287 ng/mL | Drug metabolism [23]: 449 ng/mL | Drug metabolism [24]: 84 ng/mL | Stability [25]: 2844 ng/mL | Stability [26]: 2620 ng/mL | inhibition [5]: 63% | Stability [27]: 2541 ng/mL | Drug metabolism [28]: 664 ng/mL | Stability [29]: 2839 ng/mL | Drug metabolism [30]: 21 ng/mL | Drug metabolism [31]: 330 ng/mL | Stability [32]: 2696 ng/mL | inhibition at 10 µM [6]: < 5% | Stability [33]: 2167 ng/mL | inhibition at 10 µM [7]: < 5%
Compound: C[C@@H](C(=O)O)c1ccc(OS(=O)(=O)C(F)(F)F)cc1

inhibition [3]: inactive | inhibition [5]: inactive
Compound: C[C@H](C(=O)O)c1ccc(OS(=O)(=O)C(F)(F)F)cc1

remaining at 2 h [10]: > 98% | inhibition [3]: 50% | half-life [34]: < 1 h | remaining at 1 h, 1 µM [21]: 85% | inhibition [5]: 49% | remaining at 0.5 h, 1 µM [8]: 87%
Compound: C[C@@H](C(=O)NO)c1ccc(OS(=O)(=O)C(F)(F)F)cc1
